These results are taken from patent publication US10017481B2, “Conformationally constrained, fully synthetic macrocyclic compounds” (POLYPHOR AG, priority 2012, dated 2018).

Assay [1] concerns the target T1, Oxytocin receptor (OT receptor) (Homo sapiens, UniProt P30559).
T1 construct: expressed in transfected cells; host or cells: Ca2+ optimized hematopoietic cell lines (rat)
T1 sequence (P30559 1-389): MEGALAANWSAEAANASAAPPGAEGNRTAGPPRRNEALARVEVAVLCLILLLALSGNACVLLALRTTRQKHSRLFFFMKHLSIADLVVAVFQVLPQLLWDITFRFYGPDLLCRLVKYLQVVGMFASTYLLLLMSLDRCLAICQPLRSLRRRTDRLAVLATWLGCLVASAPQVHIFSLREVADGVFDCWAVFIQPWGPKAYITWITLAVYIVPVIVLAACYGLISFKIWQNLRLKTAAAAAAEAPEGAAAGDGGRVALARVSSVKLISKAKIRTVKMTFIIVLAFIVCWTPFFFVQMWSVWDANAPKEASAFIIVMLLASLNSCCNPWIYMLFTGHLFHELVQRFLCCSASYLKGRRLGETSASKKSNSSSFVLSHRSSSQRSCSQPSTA
The experiment in a line: Ca2+ flux (FLIPR) assay, OT receptor, agonist/antagonist mode. Type of assay: cell-based. The following applies: antagonist mode. Here is the method:
Biological and Pharmacological Methods 1. Ca^2+ Flux Assays for the GPCRs Oxytocin Receptor (OT Receptor), Thyrotropin-Releasing Hormone Receptor (TRH Receptor) and Bombesin Receptor Subtype 3 (BB3 Receptor)
Assays were performed on a FLIPR^TETRA fluorometric imaging plate reader (Molecular Devices) with ScreenWorks Version 2 (Molecular Devices) as device operating and data analysis software.
Dose dependent agonist and antagonist activities were determined. Percentage activation and percentage inhibition values were determined.
Percentage activation was determined upon initial addition of the sample compounds followed by 10 minutes' incubation at 25° C. Following compound incubation, reference agonists were added at EC80 to determine percentage inhibition.
Reference agonists were purchased from reputable commercial vendors and prepared according to each ligand's specifications. All handling of ligands were done to ensure proper control throughout the experiments.
Example compounds were weighed on a Microbalance (Mettler MX5) and dissolved in 100% DMSO to a final concentration of 2.5 mM and subsequently diluted into the assay buffer.
The assay buffer was a supplemented HBSS (Hank's Balanced Salt Solution). HBSS was supplemented with 20 mM HEPES (4-(2-hydroxyethyl)-piperazin-1-ethansulfonic acid) and 2.5 mM Probenecid (Sigma P8761).
GPCR assays were performed using Ca^2+ optimized hematopoietic cell lines (rat) with cultures never exceeding 90% confluency. Cells were harvested and seeded (from cultures at less than 90% confluency) at 50000 cells/well for a 96-well plate (12500 cells/well for 384). After seeding, the assay plates were incubated for 45 minutes at room temperature. After room temperature incubation, the assay plates were incubated at 37° C. 5% CO2 for 24 hours prior to assaying.
All GPCR assays were performed using Fluo-8 Ca^2+ dye.
Ca^2+ dye was prepared at 1× dye concentration in GPCR assay buffer. After 24 hours of incubation, cells were washed with GPCR assay buffer, and then Ca^2+-dye (100 μL/well) was added.
The plates were incubated for 90 minutes at 30° C. 5% CO2 prior to FLIPR assay.
Compound plates were prepared to add 50 μL/well during the agonist assay mode. During the FLIPR assay, 50 μL/well from the compound plate was diluted 3-fold into the existing 100 μL/well from the dye loading step. Therefore all compounds were prepared as 3× the final concentration desired in the assay.
After completion of the first single addition assay run, assay plate was removed from the FLIPR Tetra and placed at 25° C. for 7 minutes before antagonist assay.
Using the EC80 values determined during the agonist assay, all pre-incubated sample compound and reference antagonist (if applicable) wells were stimulated at the EC80 of the reference agonist. As reference ligands for these assays their obvious natural ligands oxytocin (OT), thyrotropin-releasing hormone (TRH) and bombesin (6-14) [BN(6-14)] were used.
After the addition of the reference agonist fluorescence was monitored for 180 sec using FLIPR Tetra.
From the FLIPR data, with negative control correction enabled, the maximum statistic for each well was exported and percentage activation relative to Emax control was calculated.
In general terms: A change in cytosolic calcium serves as a functional read-out for many receptors and channels.

The target of assay [2] is T2, human leukotriene B4 receptor (LTB4R) (Homo sapiens, UniProt Q15722).
T2 construct: host or cells: CHO mito-i-Photina cells
The experiment in a line: Human LTB4 receptor cell-based assay (CHO mito-i-Photina, flash luminescence). The following applies: antagonist mode. From the text: 3. Human LTB4 Receptor Cell-Based Assay
CHO mito-i-Photina® cells (Axxam SpA) stably expressing the human leukotriene B4 receptor (LTB4R) were used for monitoring activation of the target LTB4R, a GPCR (Gαq), by measuring the flash luminescence of Ca^2+ sensitive photoprotein as reporter system with FLIPR^TETRA screening instrumentation (Molecular Devices) upgraded with an ICCD Camera (MDC). For data quality check and data analysis a Genedata Screener 10.0.3 was used, and for curve fitting of reference agonist and antagonist GraphPad Prism Software.
The reference agonist LTB4 and antagonist U-75302 were purchased from reputable commercial vendors and prepared according to each ligand's specifications. All handling of ligands were done to ensure proper control throughout the experiments.
The steps of the implemented workflow and data analysis are mainly as follows:
mito-1-Photina cells are seeded (10000 c/w in 384 MTP; in complete medium 25 μL/well) for 24 hours, removed from the incubator, equilibrated at room temperature for 1 h, freed from the growth medium, loaded with 30 μL/well of Tyrode's buffer containing 10 μM coelenterazine, and incubated for 3 hours at rt.
All compounds were tested at 10 μM with triplicate data points.
After incubation, the volume in all the wells is flattened to 20 μL by aspiration with CyBi®-Vario pipettor. The First Injection (10 μL of test compounds or reference antagonist U-75302 in Tyrode's buffer+DMSO 0.5%) is performed by the FLIPR^TETRA and the kinetic response is monitored over a period of 120 seconds. Incubation at rt for 10 min. is followed by the Second Injection (15 μL of LTB4 at EC80 in Tyrode's buffer) and monitoring of the kinetic response over a period of 120 seconds.
The possible kinetic response is divided into two distinct phases: Monitoring the kinetic response after the First Injection is indicated as Compound Addition (CA) and measures the agonistic activity of compounds; monitoring the kinetic response after the Second Injection is indicated as Target Activation (TA) and measures the antagonistic activity of a compound.
The activity determination (IC50 determination) experiment is performed using LTB4 as agonist (100 nM corresponding to EC80). Selected compound are tested in 8 doses intraplate dose response with quadruplicate data points.

The subject of assay [3] is S. pneumoniae DSM 20566 11A11, 3313A6, 704CG4B21, 82BERG72. The assay is described as follows: Antimicrobial assay, broth microdilution MIC, S. pneumoniae strains. Type of assay: cell-based. Particulars: Streptococcus pneumoniae, DSM20566; strain DSM 20566 (Table 32.7); read-out: MIC S. pneumoniae DSM 20566. Here is the method: (§1) The antimicrobial activities of the compounds were determined in 96-well plates (Greiner, polystyrene) by the standard NCCLS broth microdilution method (National Committee for Clinical Laboratory Standards 1993. Methods for dilution antimicrobial susceptibility tests for bacteria that grow aerobically, 3rd ed. Approved standard M7-A6. National Committee for Clinical laboratory standards, Wayne, Pa.) with slight modifications. Inocula of the microorganisms were diluted into Mueller-Hinton II (MH, cation adjusted) broth+0.002% P-80 and compared with a 0.5 McFarland standard to give appr. 10^6 colony forming units (CFU)/mL. Aliquots (50 μl) of inoculate were added to 50 μl of MH broth+0.002% P-80 containing the compounds in serial two-fold dilutions. The following microorganisms were used to determine antibiotic selectivity of the compounds: S. pneumoniae DSM 20566 11A11, 3313A6, 704CG4B21, 82BERG72; S. aureus ATCC 29213, ATCC 25923, DSM 11729, DSM 46320, S. aureus 39. Antimicrobial activities of the compounds were expressed as the minimal inhibitory concentration (MIC) in μg/mL at which no visible growth was observed after 18-20 hours of incubation at 36° C.
A general note: In broth dilution the organism is exposed to a series of concentrations in liquid medium.

Assay [4] has as its system S. aureus ATCC 29213, ATCC 25923, DSM 11729, DSM 46320, S. aureus 39. The experiment in a line: Antimicrobial assay, broth microdilution MIC, S. aureus strains. It is filed as cell-based. Particulars: Staphylococcus aureus. Here is the method: as §1

≈ marks a conversion by molar mass, not a printed value. Where two headings read alike, the source gives them in different places. A value given as a limit tells only on which side of the number the result lay.

T2 sequence (Q15722 whole entry): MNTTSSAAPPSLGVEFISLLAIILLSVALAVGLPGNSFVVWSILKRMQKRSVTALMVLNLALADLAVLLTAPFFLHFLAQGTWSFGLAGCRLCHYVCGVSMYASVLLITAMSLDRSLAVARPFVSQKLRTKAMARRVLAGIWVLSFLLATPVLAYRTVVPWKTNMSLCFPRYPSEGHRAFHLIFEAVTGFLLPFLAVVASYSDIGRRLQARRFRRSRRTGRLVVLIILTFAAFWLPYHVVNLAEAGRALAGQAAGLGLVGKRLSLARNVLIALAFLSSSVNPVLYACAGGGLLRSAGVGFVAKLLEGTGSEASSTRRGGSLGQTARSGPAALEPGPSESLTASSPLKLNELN

A word on the IC50: it is the concentration that gives 50% inhibition. Low values mean inhibition by little substance, high ones a need for much substance. In general, inhibition refers to the share of the control response that was lost under treatment. A low value points to a response near the control. Consider `CN1CCNC(=O)c2cncc(c2)-c2cccc(c2)OC[C@@H]2C[C@@H](NC(=O)Cc3ccc4ccccc4c3)CN2C(=O)C1` [Ex. 96, N-[(9S,11R)-16-methyl-14,20-dioxo-7-oxa-13,16,19,23-tetraazatetracyclo[19.3.1.1^2,6.0^9,13]hexacosa-1(25),2(26),3,5,21,23-hexaen-11-yl]-2-(2-naphthyl) acetamide], for which the IC50 in assay [1] came out at 1.2 µM. This compound came in with an inhibition at 10 µM in assay [1] (10 μM) of 60%.
In assay [2], `C[C@@H]1COc2cccc(c2)-c2ccccc2SCCCC[C@H](NC(=O)CN2CCCC2)C(=O)N1` [Ex. 119, N-[(13S,16R)-16-methyl-14-oxo-18-oxa-8-thia-15-azatricyclo[17.3.1.0^2,7]tricosa-1(23),2,4,6,19,21-hexaen-13-yl]-2-(1-pyrrolidinyl)acetamide] registered an IC50 of 14.2 µM and an inhibition at 10 µM of 47%.
As for `O=C(N[C@@H]1CCNC(=O)c2ccccc2-c2cccc(c2)OC[C@@H]2C[C@H](NC(=O)Oc3ccccc3)CN2C1=O)OCc1ccccc1` [Ex. 14], in assay [2], the IC50 was 39.4 µM and the inhibition at 10 µM came out at 46%.
Consider `CC(=O)N[C@@H]1C[C@H]2COc3cccc(c3)-c3cncc(c3)C(=O)NCCN(Cc3cccc(F)c3)CC(=O)N2C1` [Ex. 100, N-[(9S,11R)-16-(3-fluorobenzyl)-14,20-dioxo-7-oxa-13,16,19,23-tetraazatetracyclo[19.3.1.1^2,6.0^9,13]hexacosa-1(25),2(26),3,5,21,23-hexaen-11-yl]acetamide], for which the IC50 in assay [1] was found to be 4.6 µM. In assay [1] (10 μM), this compound had an inhibition at 10 µM of 57%.
Take `CN1CCNC(=O)c2cncc(c2)-c2cccc(c2)OC[C@@H]2C[C@@H](NS(=O)(=O)c3ccccc3)CN2C(=O)C1` [Ex. 103, N-[(9S,11R)-16-methyl-14,20-dioxo-7-oxa-13,16,19,23-tetraazatetracyclo[19.3.1.1^2,6.0^9,13]hexacosa-1(25),2(26),3,5,21,23-hexaen-11-yl]benzenesulfonamide]: in assay [1], the IC50 worked out at 6.9 µM. For the same compound, in assay [1] (10 μM), 10 µM produced 77% inhibition.
What is called MIC is the lowest concentration found to suppress growth. In assay [1], `CN1CCNC(=O)c2cncc(c2)-c2cccc(c2)OC[C@@H]2C[C@@H](NC(=O)OC(C)(C)C)CN2C(=O)C1` [Ex. 94, tert-butyl N-[(9S,11R)-16-methyl-14,20-dioxo-7-oxa-13,16,19,23-tetraazatetracyclo[19.3.1.1^2,6.0^9,13]hexacosa-1(25),2(26),3,5,21,23-hexaen-11-yl]carbamate] returned an IC50 of 3 µM. The inhibition at 10 µM in assay [1] (10 μM) is 58%. The MIC is greater than 16 µg/mL in assay [3]; 8 µg/mL (≈ 15.7 µM) in assay [4] (strain ATCC 25923, read-out: MIC S. aureus ATCC 25923); 4 µg/mL (≈ 7.85 µM) in assay [4] (strain ATCC 29213, read-out: MIC S. aureus ATCC 29213); 4 µg/mL (≈ 7.85 µM) in assay [4] (strain DSM 11729, read-out: MIC S. aureus DSM 11729); 8 µg/mL (≈ 15.7 µM) in assay [4] (strain DSM 46320, read-out: MIC S. aureus DSM 46320); 8 µg/mL (≈ 15.7 µM) in assay [4] (strain S. aureus 39, read-out: MIC S. aureus 39).
`CN1CCNC(=O)c2cncc(c2)-c2cccc(c2)OC[C@@H]2C[C@@H](NC(=O)Cc3cccc4ccccc34)CN2C(=O)C1` [Ex. 101, N-[(9S,11R)-16-methyl-14,20-dioxo-7-oxa-13,16,19,23-tetraazatetracyclo[19.3.1.1^2,6.0^9,13]hexacosa-1(25),2(26),3,5,21,23-hexaen-11-yl]-2-(1-naphthyl) acetamide] had an IC50 in assay [1] of 2.6 µM. In assay [1] (10 μM), the “Antagonist activity % Inhibition at 10 μM” value was determined as 69%.
Regarding `C[C@@H]1COc2cccc(c2)-c2ccccc2SCCCC[C@H](N)C(=O)N1` [Ex. 116, (13S,16R)-13-amino-16-methyl-18-oxa-8-thia-15-azatricyclo[17.3.1.0^2,7]tricosa-1(23),2,4,6,19,21-hexaen-14-one], in assay [2], it took 15.4 µM to reach half-maximal inhibition (IC50) and the inhibition at 10 µM came to 49%.
For `C[C@@H]1COc2ccccc2-c2cncc(c2)SCCCC[C@H](N)C(=O)N1` [Ex. 144, (10R,13S)-13-amino-10-methyl-8-oxa-18-thia-11,21-diazatricyclo[17.3.1.0^2,7]tricosa-1(23),2,4,6,19,21-hexaen-12-one], in assay [2], the IC50 came out at 40.9 µM and the inhibition at 10 µM was found to be 41%.
